Measured values reported in BigSolDB 2.1.

Clc1ccccc1C(c1ccccc1)(c1ccccc1)n1ccnc1
solubility (mole fraction)
Details | 293.15 K | 298.15 K | 303.15 K | 308.15 K | 313.15 K
in n-hexane | 0.000222 | 0.000267 | 0.000319 | 0.000383 | 0.000455
in n-octanol | 0.0204 | 0.0249 | 0.0304 | 0.0372 | 0.045
